The target in this assay is T1, androgen receptor (Rattus norvegicus, UniProt P15207).
T1 construct: from tissue; host or cells: prostate cytosol (209,000 g supernatant) of male Sprague Dawley rats castrated 24 hours previously
T1 sequence (P15207 1-902): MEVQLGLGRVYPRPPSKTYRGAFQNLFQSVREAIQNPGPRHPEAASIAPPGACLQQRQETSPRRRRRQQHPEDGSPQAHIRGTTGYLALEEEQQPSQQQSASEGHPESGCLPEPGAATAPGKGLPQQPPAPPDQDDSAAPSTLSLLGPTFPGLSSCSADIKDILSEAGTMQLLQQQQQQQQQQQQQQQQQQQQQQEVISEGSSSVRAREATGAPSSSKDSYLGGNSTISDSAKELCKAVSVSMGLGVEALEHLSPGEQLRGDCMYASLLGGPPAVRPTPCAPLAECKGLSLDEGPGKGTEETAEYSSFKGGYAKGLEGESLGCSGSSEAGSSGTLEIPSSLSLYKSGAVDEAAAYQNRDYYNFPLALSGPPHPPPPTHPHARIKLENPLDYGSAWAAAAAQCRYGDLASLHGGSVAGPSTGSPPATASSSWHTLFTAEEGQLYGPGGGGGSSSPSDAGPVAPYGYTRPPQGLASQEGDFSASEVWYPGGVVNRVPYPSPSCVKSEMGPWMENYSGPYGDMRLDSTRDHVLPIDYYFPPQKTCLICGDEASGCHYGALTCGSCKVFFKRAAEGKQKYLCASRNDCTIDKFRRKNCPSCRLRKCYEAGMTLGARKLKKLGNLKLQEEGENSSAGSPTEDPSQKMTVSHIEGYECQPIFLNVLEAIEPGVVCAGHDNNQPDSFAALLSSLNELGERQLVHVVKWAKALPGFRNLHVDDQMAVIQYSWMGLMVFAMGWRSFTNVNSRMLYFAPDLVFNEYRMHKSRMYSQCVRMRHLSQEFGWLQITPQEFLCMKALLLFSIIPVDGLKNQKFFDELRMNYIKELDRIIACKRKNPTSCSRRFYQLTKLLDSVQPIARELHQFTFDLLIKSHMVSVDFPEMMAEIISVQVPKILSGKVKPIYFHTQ
As to the kind of experiment: Affinity of the products for the androgen receptor (relative bond affinity, displacement of tritiated testosterone in prostate cytosol). The class given is binding. The procedure: Study of the affinity of the products for the androgen receptor
Calculation of the relative bond affinity (RBA).
The following 2 curves were drawn: the percentage of bound tritiated hormone B/T as a function of the logarithm of the concentration of the unlabelled reference hormone and B/T as a function of the logarithm of the concentration of the unlabelled tested product. The straight line of the equation I50 =(B/Tmax+B/Tmin)/2 was determined.
B/T max=% of the bound tritiated hormone for an incubation of this tritiated hormone at the concentration (T).
B/T min=% of the bound tritiated hormone for an incubation of this tritiated hormone at the concentration (T) in the presence of a large excess of unlabelled hormone (2500.10^-9 M).
The intersections of the straight line I50 and the curves allowed the evaluation of the concentrations of the unlabelled reference hormone (CH) and of the tested unlabelled product (CX) which inhibit by 50% the binding of the tritiated hormone on the receptor.

On to `N#Cc1ccc(N2C(=O)N(CCCCO)C3(CCOCC3)C2=O)cc1C(F)(F)F` [Example 3, 4-(2,4-dioxo-1-(4-hydroxybutyl)-8-oxa-1,3-diazaspiro[4.5]decan-3-yl)-2-(trifluoromethyl)-benzonitrile], for which the “RBA: Incubation 24 hours” value was 6.
As to `N#CCN1C(=O)N(c2ccc(C#N)c(C(F)(F)F)c2)C(=O)C12CCOCC2` [Example 10, 3-(4-cyano-3-(trifluoromethyl)-phenyl)-2,4-dioxo-8-oxa-1,3-diazaspiro[4.5]decan-1-acetonitrile], the “RBA: Incubation 24 hours” value came out at 5.

For the origin of these results see US5646172A, “Method of inducing antiandrogenic activity using imidazolidines substituted with a heterocycle” (Roussel Uclaf, priority 1994, dated 1997).
